Laboratory results as given in the NIST ThermoML archive (doi:10.1016/j.jct.2017.05.026).
± gives the expanded uncertainty stated by the source.

What was measured:
[1] = xn = mol fraction of the nth substance listed; conditions: 298 K, 100 kPa, Crystal, X-ray diffraction
[2] = excess molar enthalpy (molar enthalpy of mixing); xn = mol fraction of the nth substance listed; conditions: 298 K, 100 kPa, Crystal, Calvet calorimetry

For `[O-2].[O-2].[Th+4]` [thorium dioxide] + [O-2].[O-2].[U+4], the mass density ([1]; x1 = 0.2209) was 10730 ± 90 kg/m3, the mass density ([1]; x1 = 0.4319) was 10510 ± 90 kg/m3 and the mass density ([1]; x1 = 0.7519) was 10070 ± 90 kg/m3. The excess molar enthalpy ([2]; x1 = 0.2209) was -6.91 ± 3.2 kJ/mol, the excess molar enthalpy ([2]; x1 = 0.4319) was 1.55 ± 4.7 kJ/mol and the excess molar enthalpy ([2]; x1 = 0.7519) was -1.18 ± 2.8 kJ/mol.

For `[O-2].[O-2].[Zr+4]` [zirconium oxide] + [O-2].[O-2].[U+4], the mass density ([1]; x1 = 0.0847) was 10630 ± 90 kg/m3, the mass density ([1]; x1 = 0.1557) was 10260 ± 90 kg/m3 and the mass density ([1]; x1 = 0.2937) was 9570 ± 70 kg/m3. It also gave an excess molar enthalpy ([2]; x1 = 0.0847) of -9.12 ± 4.2 kJ/mol, an excess molar enthalpy ([2]; x1 = 0.1557) of -8.85 ± 3.5 kJ/mol and an excess molar enthalpy ([2]; x1 = 0.2937) of 0.81 ± 3.2 kJ/mol.
